According to article PMC9030827, “In Vitro Effects of Mitochondria-Targeted Antioxidants in a Small-Cell Carcinoma of the Ovary of Hypercalcemic Type and in Type 1 and Type 2 Endometrial Cancer” (Biomedicines, 2022):
Read-outs that look alike come from different tables or passages of the source.

What was measured:
Hec50co cells [1] = test: Cell morphology by Giemsa staining; type: cell-based, human; settings: 72 h, 5 μM Mito6_TPP, 20 μM Mito6_picol., 10 μM Mito6_isoq.
Description: Morphological changes in all cell lines were evaluated by phase-contrast microscopy (Eclipse TS100 Inverted Microscope, Nikon, Tokyo, Japan) and Giemsa staining. […] The cells were plated in 24-well plates with coverslips using the densities of 1 × 10^5 cells/well in Ishikawa and Hec50co and 2.5 × 10^5 cells/well in COV434 and HFF-1. After adherence, the cells were treated with Mito6_TPP (5 μM), Mito6_picol. (20 μM), or Mito6_isoq. (10 μM) and incubated at 37 °C with 5% CO2 for 72 h. For Giemsa staining, the cells were fixated with paraformaldehyde 4% in Phosphate Buffered Saline (PBS) for 15 min, stained with Giemsa solution for 30 min, mounted with DPX, and observed through bright field microscopy. For Höechst staining, the cells were incubated with 0.5 μg/mL Höechst 33342 in PBS for 20 min in the dark, mounted in Fluoroshield, and observed under a fluorescence microscope equipped with an excitation filter with maximum transmission at 360/400 nm. In both stainings, the cells were observed using the microscope Eclipse CI (Nikon, Japan) and the images were processed with Nikon NIS Elements Image Software (Nikon, Japan).

COV434 cells [2] = test: Intracellular ROS/RNS assessment, DCFH-DA probe; type: cell-based, human; settings: COV434, 10 μM, 2 h immediately after addition
Description: The assay for the evaluation of the levels of ROS/RNS was based on the work of Bak, et al.. All cell lines were cultured in black 96-well plates at a density of 5 × 10^4 cells/well and allowed to adhere for 24 h. After adherence, the cells were incubated with 2′,7′-dichlorodihydrofluorescein diacetate (DCFH-DA) (25 μM) for 1 h at 37 °C in the dark. The DCFH-DA probe allows the detection of intracellular ROS, more specifically H2O2, HO^● and ROO^●, and RNS, more specifically, ^●NO and ONOO^− [51]. The cells were then treated with 10 μM of either Mito6_TPP, Mito6_picol., or Mito6_isoq. The stress inducer H2O2 (200 μM) was used as the positive control. The fluorescence provided by the probe was measured immediately and every 5 min for 2 h at 37 °C using a BioTek Synergy HTX Multi-Mode Microplate Fluorimeter equipped with BioTek Gen5 Data Collection and Analysis Software (BioTek Instruments, Winooski, VT, USA) (excitation: 485 nm; emission: 530 nm).

Hec50co cells [3] = test: Neutral red (NR) cell viability assay; type: cell-based; settings: Homo sapiens
Description: (§1) Experiments were performed using the following cell lines: Ishikawa, Hec50co, COV434, and HFF-1. The Ishikawa cell line (RRID: CVCL_2529) was established from an endometrial adenocarcinoma. The Hec50co cell line (RRID: CVCL_4Y59) consists of poorly differentiated endometrial tumor cells isolated from a patient with advanced disease. Both the Ishikawa and Hec50co cell lines were kindly provided by Dr. Kim K. Leslie (The University of New Mexico Health Sciences Center, Albuquerque, NM, USA). COV434 (RRID: CVCL_2010) were initially isolated from a patient diagnosed with a granulosa cell tumor but were recently classified as cells from a small-cell carcinoma of the ovary, hypercalcemic type.The COV434 cells were purchased from the European Collection of Authenticated Cell Cultures (ECACC) (#07071909). HFF-1 (RRID: CVCL_3285) is an immortalized human foreskin fibroblasts cell line, obtained from the American Type Culture Collection (ATCC), which was used as control, as they are non-tumorous cells. The Ishikawa and Hec50co cells were maintained in Dulbecco’s Modified Eagle Medium/F12 (DMEM/F12) supplemented with 5% Foetal Bovine Serum (FBS). COV434 cells were maintained in DMEM/F12 supplemented with 10% FBS. HFF-1 were maintained in Roswell Park Memorial Institute 1640 (RPMI 1640) supplemented with 10% FBS. All mediums were supplemented with 1% AB-AM and all cells were kept at 37 °C with 5% CO2. The treatment with the compounds was done in the respective cell medium supplemented with 2% FBS and 24 h after platting the cells in the culture medium with 5% FBS to allow their adherence.
(§2) The Ishikawa, Hec50co, COV434, and HFF-1 cell lines were plated at a density of 5 × 10^4 cells/well in transparent 96-well plates. After 24 h, the cells were treated with Mito6_TPP, Mito6_picol., or Mito6_isoq. (0.01–100 μM) and incubated at 37 °C with 5% CO2 for 24, 48, or 72 h. […] The conditions of the methylthiazolyldiphenyl-tetrazolium bromide (MTT) assay were adapted from the work of Banerjee et al.. Briefly, MTT was added to a final concentration of 0.5 mg/mL, and the cells were incubated for 3 h at 37 °C with 5% CO2. After the 3 h, purple MTT formazan crystals were dissolved by agitation for 15 min in a solution of DMSO/isopropanol (ratio 3:1) and quantified spectrophotometrically at 540 nm. The neutral red (NR) assay conditions were based on the work developed by Repetto et al.. Briefly, after the incubation time, cells were incubated with NR at 40 μg/mL in an FBS-free cell medium for 3 h. The cells were then incubated with a solution of 50% ethanol (96% v/v), 49% deionized water, and 1% glacial acetic acid, with shaking for 15 min. The NR extracted from the cells was measured at 540 nm. The LDH cytotoxicity assay was not performed on the HFF-1 cells due to the lack of evidence of cell death at the concentrations tested. After the incubation time, this assay was performed using a Thermo Scientific Pierce LDH Cytotoxicity Assay Kit according to the manufacturer’s instructions. For all assays, the absorbance was read using a BioTek Synergy HTX Multi-Mode Microplate Reader equipped with BioTek Gen5 Data Collection and Analysis Software (BioTek Instruments, Winooski, VT, USA).
(§3) Data were evaluated using the one- or two-way analysis of variance (ANOVA) test followed by Bonferroni’s test for multiple comparisons. The data presented was expressed as mean ± SEM (Standard Error of the Mean) of a minimum of three and a maximum of seven independent experiments performed in triplicate. Values of p < 0.05 were considered statistically significant. Half of the maximal effective concentration (EC50) values were estimated by interpolation of dose-response curves and reported as a mean with a 95% confidence interval (CI 95%). All statistical analysis was performed using GraphPad Prism Software 8.0 (GraphPad Software, Inc., San Diego, CA, USA). […]

Ishikawa cells = test: Neutral red (NR) cell viability assay; type: cell-based; settings: Homo sapiens
Description: as §1, §2, §3

COV434 cells [4] = test: Neutral red (NR) cell viability assay; type: cell-based; settings: Homo sapiens
Description: as §1, §2, §3

[5] = 24 h, read-out: EC50 (decrease of viability), NR assay
[6] = 48 h, read-out: EC50 (decrease of viability), NR Assay
[7] = 72 h, read-out: EC50 (decrease of viability), NR assay
[8] = COV434, 24 hours of incubation, read-out: EC50 (decrease of viability), NR assay
[9] = COV434, 48 h of incubation, read-out: EC50 (decrease of viability), NR Assay
[10] = COV434, 72 hours of incubation, read-out: EC50 (decrease of viability), NR assay
[11] = Hec50co, 24 hours of incubation, read-out: EC50 (decrease of viability), NR assay
[12] = Hec50co, 48 h of incubation, read-out: EC50 (decrease of viability), NR Assay
[13] = Hec50co, 72 hours of incubation, read-out: EC50 (decrease of viability), NR assay
[14] = 24 hours of incubation, read-out: EC50 (decrease of viability), NR assay
[15] = 48 h of incubation, read-out: EC50 (decrease of viability), NR Assay
[16] = 72 hours of incubation, read-out: EC50 (decrease of viability), NR assay

Structure (SMILES): O=C(/C=C/c1ccc(O)c(O)c1)NCCCCCCCCCC[P+](c1ccccc1)(c1ccccc1)c1ccccc1 [Mito6_TPP]
- Cell morphology changes (Giemsa staining) (Hec50co cells [1]): altered cell shapes and indications of chromatin condensation
- Intracellular ROS levels vs untreated cells (COV434 cells [2]): faster and more accentuated decrease in ROS levels
- EC50 (Hec50co cells [3]; [5]): 53.6 µM
- EC50 (Hec50co cells [3]; [6]): 35.4 µM
- EC50 (Hec50co cells [3]; [7]): 23.9 µM
- EC50 (Ishikawa cells; [5]): 33.2 µM
- EC50 (Ishikawa cells; [6]): 15.7 µM
- EC50 (Ishikawa cells; [7]): 11.2 µM
- EC50 (COV434 cells [4]; [8]): 13.6 µM
- EC50 (COV434 cells [4]; [9]): 9.11 µM
- EC50 (COV434 cells [4]; [10]): 4.01 µM

Structure (SMILES): O=C(/C=C/c1ccc(O)c(O)c1)NCCCCCCCCCC[n+]1ccc2ccccc2c1 [Mito6_isoq.]
- EC50 (Hec50co cells [3]; [11]): > 100 µM
- EC50 (Hec50co cells [3]; [12]): 150 µM
- EC50 (Hec50co cells [3]; [13]): 87.6 µM
- EC50 (Ishikawa cells; [14]): 55.3 µM
- EC50 (Ishikawa cells; [15]): 36.9 µM
- EC50 (Ishikawa cells; [16]): 28.9 µM
- EC50 (COV434 cells [4]; [8]): 51.6 µM
- EC50 (COV434 cells [4]; [9]): 40 µM
- EC50 (COV434 cells [4]; [10]): 30.8 µM

Structure (SMILES): Cc1cc[n+](CCCCCCCCCCNC(=O)/C=C/c2ccc(O)c(O)c2)cc1 [Mito6_picol.]
- Cell morphology changes (Giemsa staining) (Hec50co cells [1]): did not induce any morphological changes
- Intracellular ROS levels vs untreated cells (COV434 cells [2]): no effects
- EC50 (Hec50co cells [3]; [11]): > 100 µM
- EC50 (Hec50co cells [3]; [12]): 197 µM
- EC50 (Hec50co cells [3]; [13]): 92 µM
- EC50 (Ishikawa cells; [14]): > 100 µM
- EC50 (Ishikawa cells; [15]): 84.4 µM
- EC50 (Ishikawa cells; [16]): 59.4 µM
- EC50 (COV434 cells [4]; [8]): 87.8 µM
- EC50 (COV434 cells [4]; [9]): 62.5 µM
- EC50 (COV434 cells [4]; [10]): 34.2 µM
